Source: publication PMC6100703, “Rapid, simple, and clinically applicable high-performance liquid chromatography method for clinical determination of plasma colistin concentrations” (Journal of Pharmaceutical Health Care and Sciences, 2018)
Converted amounts (≈) assume the structure as drawn. Like-named read-outs stand apart in the source and are kept apart here.

Assays:
[1] = Derivative stability (FMOC-Cl derivatives in eluted solution); format: physicochemical; settings: mean ± SD; for Refrigerated, recovery relative to freshly prepared samples: 4 °C; for Refrigerated, recovery relative to freshly prepared samples / Room temperature, recovery relative to freshly prepared samples / Frozen, recovery relative to freshly prepared samples: 7 d, HPLC-fluorescence peak area; for Refrigerated, recovery relative to freshly prepared samples / Frozen, recovery relative to freshly prepared samples: dark; for Room temperature, recovery relative to freshly prepared samples: 25 ± 1 °C, normal fluorescent light; for Freeze-thaw, recovery relative to freshly prepared samples: three cycles −23 °C to room temperature on consecutive days; for Frozen, recovery relative to freshly prepared samples: −23 °C, closed glass test tubes
Method: The derivative stabilities of the samples containing 0.10 and 8.0 μg/mL of the standard colistin solution and the internal standard were evaluated at − 23 (frozen), 4 (refrigerated), and 25 ± 1 °C (room temperature) over 7 d. Freeze-thaw stability was assessed after three complete freeze-thaw cycles (− 23 °C to room temperature) on consecutive days. The stability of the target compounds was presented as the recovery (%) relative to the freshly prepared samples. The solutions at room temperature were exposed to normal fluorescent light, while the frozen and refrigerated samples were stored in a dark refrigerator and were exposed to light only during sampling. The storage temperatures were closely monitored throughout the study.

[2] = system: MDRP with metallo-beta-lactamase (multidrug-resistant Pseudomonas aeruginosa); experiment: Minimum inhibitory concentrations for the blood culture isolate of the patient; format: cell-based; settings: for MIC: Pseudomonas aeruginosa, read-out: minimum inhibitory concentration
[3] = design: method as in 2 sources, ref Sorlí et al. [24] ||| ref Garonzik et al. [25]; settings: cited from earlier work
[4] = human, in vivo
Method: (§1) A patient (weight 52 kg, height 153.2 cm) with antineutrophilic cytoplasmic antibody-positive vasculitis undergoing renal replacement (intermittent haemodialysis, HD) was admitted to the hospital for rituximab and steroid pulse therapy. The HD patient’s disease had been complicated by Pneumocystis jiroveci pneumonia, herpes zoster, and MDRP infections. […] With the preliminary information of positive blood cultures, empiric treatment with cefepime (1 g every 12 h) was performed over 5 d. […] In addition, the following treatment parameters were employed: dialysate flow rate, 500 mL/min; blood flow rate, 100 mL/min; membrane surface area, 1.5 m^2; membrane type, APS-15MD New; HD frequency, twice per week; and session duration, 3 h. Samples were collected immediately prior to a dose or immediately prior to the next dose if CMS was not being administered every 24 h. The actual times of CMS administration and blood sampling were recorded. Samples were collected in potassium (K)2-ethylenediaminetetraacetic acid (EDTA)-containing tubes and centrifuged for 15 min within 2 h of collection. The resulting plasma sample was measured on the same day as blood collection. The HD clearance (CLHD) for colistin was calculated every hour during the start and end of the HD session as: […]

[5] = Plasma colistin concentration of a haemodialysis patient on CMS therapy (HPLC with fluorescence detection); format: in vivo, human; settings: K2-EDTA plasma; for colistin concentration in plasma: HD patient
Method: HPLC analysis was performed at 25 ± 1 °C under isocratic conditions. All measurements were carried out at excitation and emission wavelengths of 260 nm and 315 nm, respectively, and the column temperature was maintained at 40 °C. The mobile phase consisted of a mixture of acetonitrile/tetrahydrofuran/distilled water (50:14:20, v/v/v) and was delivered at a flow rate of 1.6 mL/min. The sample injection volume was 50 μL.
Initially, the colistin and the internal standard (netilmicin sulfate, 20 μL) stock solutions were added to a portion of serum (200 μL). Following the addition of methanol (25 μL) and 10% trichloroacetic acid (25 μL) to the sample, it was vortexed for 10 s prior to centrifugation at 13,000 rpm for 5 min. The supernatant was then placed in an additional centrifuge tube and mixed with a 1 M sodium hydroxide solution (10 μL). The sample solution was loaded onto the solid-phase extraction (SPE) cartridge, which had been previously conditioned according to the following procedure.
SPE C18 cartridges (55 μm, 100 mg/mL; Phenomenex, Torrance, USA) were conditioned using acetone (1 mL) and methanol (1 mL) and equilibrated with 1% carbonate buffer (1 mL). The sample was then applied to the wet cartridge. After passing the sample through the cartridge, it was rinsed with methanol (1 mL) and carbonate buffer (1 mL), followed by a 100 mM FMOC-Cl solution (60 μL) and 90% methanol (3 mL). The derivatives were then eluted into a glass culture tube using acetone (500 μL). The eluted solution was mixed with a 0.6 M boric acid solution (100 μL) prior to vortex-mixing for 10 s, and then the obtained sample was injected into the HPLC system. All procedures were conducted at 25 ± 1 °C.
A patient (weight 52 kg, height 153.2 cm) with antineutrophilic cytoplasmic antibody-positive vasculitis undergoing renal replacement (intermittent haemodialysis, HD) was admitted to the hospital for rituximab and steroid pulse therapy. The HD patient’s disease had been complicated by Pneumocystis jiroveci pneumonia, herpes zoster, and MDRP infections. […] With the preliminary information of positive blood cultures, empiric treatment with cefepime (1 g every 12 h) was performed over 5 d. […] In addition, the following treatment parameters were employed: dialysate flow rate, 500 mL/min; blood flow rate, 100 mL/min; membrane surface area, 1.5 m^2; membrane type, APS-15MD New; HD frequency, twice per week; and session duration, 3 h. Samples were collected immediately prior to a dose or immediately prior to the next dose if CMS was not being administered every 24 h. The actual times of CMS administration and blood sampling were recorded. Samples were collected in potassium (K)2-ethylenediaminetetraacetic acid (EDTA)-containing tubes and centrifuged for 15 min within 2 h of collection. The resulting plasma sample was measured on the same day as blood collection. The HD clearance (CLHD) for colistin was calculated every hour during the start and end of the HD session as:
CMS was administered to the HD patient over 7 d (days 6–12), and six samples of blood were collected between days 7 and 12 of CMS therapy (Fig. 3). The initial sample was collected on day 7 approximately 20 h after the administration of CMS. All other samples were collected ~ 24 h after each dose. On the day of dialysis, the blood samples were collected at the start and end of the HD session.

[6] = system: multidrug-resistant Pseudomonas aeruginosa infection; settings: HD patient with MDRP infection; CMS 75 mg every 24 h after loading dose 250 mg, in combination with meropenem 1 g every 24 h; after a few days
Method: as §1

[7] = blood cultures from two peripheral vein sites of the HD patient, MDRP with metallo-beta-lactamase
[8] = critically ill patients, including those on HD and continuous renal replacement, ref Garonzik et al. [25]
[9] = patients suffering from nephrotoxicity, ref Sorlí et al. [24]

With `CCN[C@@H]1C[C@H](N)[C@@H](O[C@H]2OC(CN)=CC[C@H]2N)[C@H](O)[C@H]1O[C@H]1OC[C@](C)(O)[C@H](NC)[C@H]1O` [Netilmicin, netilmicin] the “Refrigerated, recovery relative to freshly prepared samples” value ([1]; 0.10 μg/mL) was 104 ± 2%, the “Room temperature, recovery relative to freshly prepared samples” value ([1]; 0.10 μg/mL) was 102 ± 3% and the “Freeze-thaw, recovery relative to freshly prepared samples” value ([1]; 0.10 μg/mL) was 98 ± 3%. For the same compound, the “Frozen, recovery relative to freshly prepared samples” value ([1]; 0.10 μg/mL) was 102 ± 3%, the “Refrigerated, recovery relative to freshly prepared samples” value ([1]; 8.00 μg/mL) was 101 ± 2% and the “Room temperature, recovery relative to freshly prepared samples” value ([1]; 8.00 μg/mL) was 103 ± 2%. The “Freeze-thaw, recovery relative to freshly prepared samples” value ([1]; 8.00 μg/mL) was 102 ± 2% and the “Frozen, recovery relative to freshly prepared samples” value ([1]; 8.00 μg/mL) was 103 ± 3%.
Compound `NCC[C@H](O)C(=O)N[C@@H]1C[C@H](N)[C@@H](O[C@H]2O[C@H](CN)[C@@H](O)[C@H](O)[C@H]2O)[C@H](O)[C@H]1O[C@H]1O[C@H](CO)[C@@H](O)[C@H](N)[C@H]1O` [amikacin] has an MIC [2, 7] greater than 16 µg/mL.
With `C[C@H]1[C@H](NC(=O)/C(=N\OC(C)(C)C(=O)O)c2csc(N)n2)C(=O)N1S(=O)(=O)O` [aztreonam] the MIC [2] was 16 µg/mL (≈ 36.7 µM).
For `CO/N=C(\C(=O)N[C@@H]1C(=O)N2C(C(=O)[O-])=C(C[N+]3(C)CCCC3)CS[C@H]12)c1csc(N)n1` [cefepime], the MIC [2] was greater than 32 µg/mL.
With `CC(C)(O/N=C(\C(=O)N[C@@H]1C(=O)N2C(C(=O)[O-])=C(C[n+]3ccccc3)CS[C@H]12)c1csc(N)n1)C(=O)O` [ceftazidime] the MIC [2, 7] was greater than 32 µg/mL.
`O=C(O)c1cn(C2CC2)c2cc(N3CCNCC3)c(F)cc2c1=O` [ciprofloxacin] gave an MIC [2] greater than 4 µg/mL.
Work on `CNC(C)C1CCC(N)C(OC2C(N)CC(N)C(OC3OCC(C)(O)C(NC)C3O)C2O)O1` (stereo not drawn) [gentamicin] yielded an MIC [2, 7] greater than 16 µg/mL.
Work on `C[C@@H](O)[C@H]1C(=O)N2C(C(=O)O)=C(S[C@@H]3CN[C@H](C(=O)N(C)C)C3)[C@H](C)[C@H]12` [meropenem] yielded an MIC [2, 7] greater than 8 µg/mL.
With `CN(C)c1ccc(O)c2c1C[C@H]1C[C@H]3[C@H](N(C)C)C(O)=C(C(N)=O)C(=O)[C@@]3(O)C(O)=C1C2=O` [minocycline] the MIC [2, 7] was greater than 8 µg/mL.
Work on `CCN1CCN(C(=O)N[C@@H](C(=O)N[C@@H]2C(=O)N3[C@@H]2SC(C)(C)[C@@H]3C(=O)O)c2ccccc2)C(=O)C1=O` [piperacillin] yielded an MIC [2, 7] of 8 µg/mL (≈ 15.5 µM).
For colistin, the “average steady-state concentration of colistin, median” value [3, 8] is given as 2.36 µg/mL, the “average steady-state concentration of colistin, range” value [3, 8] is given as 0.48 to 9.38 µg/mL and the “minimal concentration of colistin, median” value [3, 9] is given as 1.18 µg/mL. For the same compound, the “minimal concentration of colistin, range” value [3, 9] was 0.16 to 5.99 µg/mL, the “peak concentration of colistin, median” value [3, 9] was 1.81 µg/mL and the “peak concentration of colistin, range” value [3, 9] was 0.16 to 6.12 µg/mL. For the same compound, the “HD clearance (CLHD)” value [4] was 30.7 mL/min, the “colistin concentration in plasma” value ([5]; day 7, approximately 20 h after administration of CMS (loading dose 250 mg)) was 7.85 µg/mL and the “colistin concentration in plasma” value ([5]; day 8, ~24 h after dose, CMS 75 mg every 24 h) was 5.95 µg/mL. The “colistin concentration in plasma” value ([5]; day 9, ~24 h after dose, CMS 75 mg every 24 h) was 3.91 µg/mL, the “colistin concentration in plasma” value ([5]; day 12, ~24 h after dose, CMS 75 mg every 24 h) was 3.70 µg/mL and the “colistin concentration in plasma at the end of the HD session” value ([5]; day 10, end of 3 h HD session) was 2.75 µg/mL. The “colistin concentration in plasma at the start of the HD session” value ([5]; day 10, start of 3 h HD session) was 4.57 µg/mL and the minimum inhibitory concentration [2, 7] was no more than 1 µg/mL.
In the case of colistin A, the “Refrigerated, recovery relative to freshly prepared samples” value ([1]; 0.10 μg/mL) is reported as 100 ± 1%, the “Room temperature, recovery relative to freshly prepared samples” value ([1]; 0.10 μg/mL) is reported as 102 ± 3% and the “Freeze-thaw, recovery relative to freshly prepared samples” value ([1]; 0.10 μg/mL) is reported as 97 ± 3%. The “Frozen, recovery relative to freshly prepared samples” value ([1]; 0.10 μg/mL) was 105 ± 3%, the “Refrigerated, recovery relative to freshly prepared samples” value ([1]; 8.00 μg/mL) was 100 ± 3% and the “Room temperature, recovery relative to freshly prepared samples” value ([1]; 8.00 μg/mL) was 99 ± 2%. For the same compound, the “Freeze-thaw, recovery relative to freshly prepared samples” value ([1]; 8.00 μg/mL) was 100 ± 2% and the “Frozen, recovery relative to freshly prepared samples” value ([1]; 8.00 μg/mL) was 102 ± 2%.
In the case of colistin B, the “Refrigerated, recovery relative to freshly prepared samples” value ([1]; 0.10 μg/mL) is reported as 102 ± 2%, the “Room temperature, recovery relative to freshly prepared samples” value ([1]; 0.10 μg/mL) is reported as 102 ± 2% and the “Freeze-thaw, recovery relative to freshly prepared samples” value ([1]; 0.10 μg/mL) is reported as 102 ± 3%. The “Frozen, recovery relative to freshly prepared samples” value ([1]; 0.10 μg/mL) was 105 ± 2%, the “Refrigerated, recovery relative to freshly prepared samples” value ([1]; 8.00 μg/mL) was 98 ± 3% and the “Room temperature, recovery relative to freshly prepared samples” value ([1]; 8.00 μg/mL) was 101 ± 2%. The “Freeze-thaw, recovery relative to freshly prepared samples” value ([1]; 8.00 μg/mL) was 99 ± 3% and the “Frozen, recovery relative to freshly prepared samples” value ([1]; 8.00 μg/mL) was 100 ± 3%.
With colistin methanesulfonate [CMS] the “blood cultures after switching to CMS therapy” value [6] was “negative”.
